Assay results reported in US7230166B2, “Variety of four-leaf clover and a method for breeding the same” (priority 2002, dated 2007).

Legend:
Format in all cases: cell-based, white clover (Trifolium repense L.)
[1] = system: cut segments of the white clover; assay: Effects of Ethyl Methane Sulfonate on the mutation of the shoots; details: for Color of leaves / Heliophilous / Mutation ratio (%) / Numbers of leaves / Numbers of stems / Shape of leaves: 3.0 sec
Text: Two hundreds of wild-type white clovers, which were native in Korea, were harvested, wherein the respective clovers had three leaves and a stem of a length of about 7 cm.
All leaves were removed from the clovers. Then, the stems of the clovers were cut at a length of about 3˜4 cm, which are transferred to a conical flask and subjected to a solution of ethyl alcohol of 70% for 30 seconds to sterilize the stems. Next, the segments of stems were washed with sterile water, which in turn were transferred to a solution of ethyl alcohol of 70% for 15 minutes to sterilize surfaces of the stem segments. Continuously, the stem segments were washed with sterile water three times.
The sterilized segments of the white clovers were cut again at a length of 2˜3 mm in a clean bench, wherein each of the cut segments included growing point. The resulting cut segments of the white clover were treated with Ethyl Methane Sulfonate in order to induce mutation.
Referring to the Table 1, shoots were respectively treated with Ethyl Methane Sulfonate of 0.1˜0.3 μg/L for 3 seconds. As the result, when the shoots were treated with Ethyl Methane Sulfonate of 0.2 μg/L, the ratio, regarding the growth of four leaves from the stem, is highest.

[2] = system: cultivated shoots of the clover; assay: Effects of IAA/IBA and NAA on shoot growth and rooting of the cultivated shoots; details: for Length of roots (cm) / Length of shoots (cm) / Numbers of roots/segments / Numbers of shoots/segments / Weight of shoots/segments: basic MS medium + SUCROSE 20 g/L;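 for Length of roots (cm): Auxin doses in mg/L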;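 for Length of shoots (cm): Auxin doses in mg/L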;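 for Numbers of roots/segments: Auxin doses in mg/L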;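 for Numbers of shoots/segments: Auxin doses in mg/L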;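 for Weight of shoots/segments (g): Auxin doses in mg/L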
Method: The cultivation was carried out under the conditions of acidity of pH 5.5, 22˜25° C. and luminous intensity of 800 lux.

shoots of the clover = assay: Effects of the density of sucrose in the medium on the propagation and growth of shoots
Method: Meanwhile, sucrose of […] was added to the medium in order to reduce the callus formation and the transparency ratio during the cultivation of the shoots.

[3] = system: shoots of the white clover; assay: Effects of BAP, IAA and NAA on the shoot propagation of the clover
Method: Furthermore, in order to promote mutation and cell division of shoots of the white clover, the shoots were treated with cold water of 5° C. for 20 seconds, which in turn were transferred to a solution of Ethyl Methane Sulfonate of 0.2 μg/L for 3 seconds. Then, the shoots were washed with sterile water. […] The incubation of the shoots was carried out under the conditions of temperature of 21° C. and luminous intensity of 500 lux.

[4] = Sucrose 10 mg/L, basic MS medium + BAP 2.0 mg/L + IAA 0.5 mg/L
[5] = Sucrose 15 mg/L, basic MS medium + BAP 2.0 mg/L + IAA 0.5 mg/L
[6] = Sucrose 20 mg/L, basic MS medium + BAP 2.0 mg/L + IAA 0.5 mg/L
[7] = Sucrose 25 mg/L, basic MS medium + BAP 2.0 mg/L + IAA 0.5 mg/L
[8] = Sucrose 30 g/L, basic MS medium + BAP 2.0 mg/L + IAA 0.5 mg/L
[9] = medium with BAP of 1.0˜2.0 mg/L

For CCOS(C)(=O)=O [EMS, Ethyl Methane Sulfonate], the Color of leaves ([1]; EMS 0.1 μg/L) was “Light”, the Heliophilous ([1]; EMS 0.1 μg/L) was 0.3c and the “Mutation ratio (%)” value ([1]; EMS 0.1 μg/L) was 12c %. For the same molecule, the Numbers of leaves ([1]; EMS 0.1 μg/L) was 4c, the Numbers of stems ([1]; EMS 0.1 μg/L) was 6c and the Shape of leaves ([1]; EMS 0.1 μg/L) was “Heart”. The Color of leaves ([1]; EMS 0.2 μg/L) was “Light”, the Heliophilous ([1]; EMS 0.2 μg/L) was 1.5a and the “Mutation ratio (%)” value ([1]; EMS 0.2 μg/L) was 25a %. The Numbers of leaves ([1]; EMS 0.2 μg/L) was 4a, the Numbers of stems ([1]; EMS 0.2 μg/L) was 10b and the Shape of leaves ([1]; EMS 0.2 μg/L) was “Heart”. For the same molecule, the Color of leaves ([1]; EMS 0.3 μg/L) was “Light”, the Heliophilous ([1]; EMS 0.3 μg/L) was 2.5b and the “Mutation ratio (%)” value ([1]; EMS 0.3 μg/L) was 18b %. For the same molecule, the Numbers of leaves ([1]; EMS 0.3 μg/L) was 4b, the Numbers of stems ([1]; EMS 0.3 μg/L) was 8b and the Shape of leaves ([1]; EMS 0.3 μg/L) was “Heart”. For the same molecule, the “ratio regarding the growth of four leaves from the stem” value ([1]; Ethyl Methane Sulfonate of 0.2 μg/L for 3 seconds, among 0.1˜0.3 μg/L) was “highest”.
In the case of O=C(O)Cc1cccc2ccccc12 [NAA, α-Naphthaleneacetic Acid], the “Length of roots (cm)” value ([2]; NAA 0.5) is reported as 4.8 a cm, the “Length of shoots (cm)” value ([2]; NAA 0.5) is reported as 4.6 a cm and the Numbers of roots/segments ([2]; NAA 0.5) is reported as 3.2 a. For the same molecule, the Numbers of shoots/segments ([2]; NAA 0.5) was 1.0 a, the “Weight of shoots/segments” value ([2]; NAA 0.5) was 3.92 g and the “Length of roots (cm)” value ([2]; NAA 1.0) was 3.6 ab cm. For the same molecule, the “Length of shoots (cm)” value ([2]; NAA 1.0) was 4.8 a cm, the Numbers of roots/segments ([2]; NAA 1.0) was 2.5 ab and the Numbers of shoots/segments ([2]; NAA 1.0) was 1.1 a. For the same molecule, the “Weight of shoots/segments” value ([2]; NAA 1.0) was 4.21 g, the “Length of roots (cm)” value ([2]; NAA 2.0) was 3.4 b cm and the “Length of shoots (cm)” value ([2]; NAA 2.0) was 4.8 a cm. For the same molecule, the Numbers of roots/segments ([2]; NAA 2.0) was 1.9 b, the “Weight of shoots/segments” value ([2]; NAA 2.0) was 3.42 g and the “Length of roots (cm)” value ([2]; NAA 5.0) was 3.2 b cm. For the same molecule, the “Length of shoots (cm)” value ([2]; NAA 5.0) was 4.2 a cm, the Numbers of roots/segments ([2]; NAA 5.0) was 1.6 b and the Numbers of shoots/segments ([2]; NAA 5.0) was 1.0 a. The “Weight of shoots/segments” value ([2]; NAA 5.0) was 3.72 g and the “rooting of the shoots” value ([2]; NAA of 0.5˜1.0 mg/L added to the basic MS medium) was “induced well”.
OC[C@H]1O[C@@](CO)(O[C@H]2O[C@H](CO)[C@@H](O)[C@H](O)[C@H]2O)[C@@H](O)[C@@H]1O [Sucrose, sucrose] was tested, and the “Length of shoots (cm)” value (shoots of the clover; [4]) was 3.2 a cm, the Numbers of shoots/segments (shoots of the clover; [4]) was 3.2 a^a and the “Weight of shoots/segments (g)” value (shoots of the clover; [4]) was 1.66 a g. The “transparency ratio (%)” value (shoots of the clover; [4]) was 3.46 b %, the “Length of shoots (cm)” value (shoots of the clover; [5]) was 4.1 a cm and the Numbers of shoots/segments (shoots of the clover; [5]) was 3.9 a. For the same molecule, the “Weight of shoots/segments (g)” value (shoots of the clover; [5]) was 2.13 ab g, the “transparency ratio (%)” value (shoots of the clover; [5]) was 40.1 a % and the “Length of shoots (cm)” value (shoots of the clover; [6]) was 4.8 a cm. The Numbers of shoots/segments (shoots of the clover; [6]) was 4.0 a, the “Weight of shoots/segments (g)” value (shoots of the clover; [6]) was 2.17 ab g and the “transparency ratio (%)” value (shoots of the clover; [6]) was 46.7 a %. For the same molecule, the Callus formation (shoots of the clover; [7]) was “++”, the “Length of shoots (cm)” value (shoots of the clover; [7]) was 3.9 a cm and the Numbers of shoots/segments (shoots of the clover; [7]) was 3.6 a. For the same molecule, the “Weight of shoots/segments (g)” value (shoots of the clover; [7]) was 2.43 ab g, the “transparency ratio (%)” value (shoots of the clover; [7]) was 42.4 a % and the Callus formation (shoots of the clover; [8]) was “+++”. The “Length of shoots (cm)” value (shoots of the clover; [8]) was 4.4 a cm, the Numbers of shoots/segments (shoots of the clover; [8]) was 3.4 a and the “Weight of shoots/segments (g)” value (shoots of the clover; [8]) was 2.73 a g. The “transparency ratio (%)” value (shoots of the clover; [8]) was 50.7 a % and the “Callus formation” value (shoots of the clover; sucrose of 15˜20 g/L in the medium) was “callus was generated only”.
c1ccc(CNc2ncnc3nc[nH]c23)cc1 [BAP, 6-Benzylaminopurine] was tested, and the “incubation efficiency of the shoots” value ([3]; in proportion to the density of the BAP) was “enhanced”, the “average number of the shoots” value [3, 9] was “more than 2.7” and the transparency ratio [3, 9] was “more than 42.3%”.
For O=C(O)CCCc1c[nH]c2ccccc12 [IBA], the “Length of roots (cm)” value ([2]; IBA 0.5) was 4.9 a cm, the “Length of shoots (cm)” value ([2]; IBA 0.5) was 5.1 a cm and the Numbers of roots/segments ([2]; IBA 0.5) was 2.2 ab. The Numbers of shoots/segments ([2]; IBA 0.5) was 1.4 a, the “Weight of shoots/segments” value ([2]; IBA 0.5) was 3.4 g and the “Length of roots (cm)” value ([2]; IBA 1.5) was 4.6 a cm. The “Length of shoots (cm)” value ([2]; IBA 1.5) was 5.3 a cm, the Numbers of roots/segments ([2]; IBA 1.5) was 2.8 ab and the Numbers of shoots/segments ([2]; IBA 1.5) was 1.2 a. For the same molecule, the “Weight of shoots/segments” value ([2]; IBA 1.5) was 4.66 g, the “Length of roots (cm)” value ([2]; IBA 2.0) was 5.1 a cm and the “Length of shoots (cm)” value ([2]; IBA 2.0) was 5.1 a cm. The Numbers of roots/segments ([2]; IBA 2.0) was 3.4 a, the Numbers of shoots/segments ([2]; IBA 2.0) was 1.0 a and the “Weight of shoots/segments” value ([2]; IBA 2.0) was 4.21 g. For the same molecule, the “Length of roots (cm)” value ([2]; IBA 5.0) was 3.1 b cm, the “Length of shoots (cm)” value ([2]; IBA 5.0) was 4.7 a cm and the Numbers of roots/segments ([2]; IBA 5.0) was 1.2 b. The Numbers of shoots/segments ([2]; IBA 5.0) was 1, the “Weight of shoots/segments” value ([2]; IBA 5.0) was 3.33 g and the “rooting of the shoots” value ([2]; IBA of 0.5 mg/L added to the basic MS medium) was “induced well”.
